Reference: patent US9926281B2 (priority 2014, dated 2018)

Assays:
[1] = molecular target: human MMP13 (Homo sapiens (Human), UniProt P45452); settings: read-out: hMMP-13 potency IC50
Description: Human MMP13 is preactivated by incubated the enzyme in the same buffer complemented with 1 mM freshly prepared p-Aminophenylmercuric acetate (AMPA) for 1 hour at 37° C.

[2] = molecular target: human TACE (Homo sapiens (Human), UniProt P78536); settings: read-out: TACE potency IC50
[3] = molecular target: rnADAMTS-5 (1-564-6H) (Rattus norvegicus, UniProt Q6TY19); settings: read-out: Rat ADAMTS-5 potency IC50
[4] = molecular target: human ADAMTS-5 (Homo sapiens (Human), UniProt Q9UNA0); settings: read-out: hADAMTS-5 potency IC50
Chain of human ADAMTS-5 (Q9UNA0 262-930): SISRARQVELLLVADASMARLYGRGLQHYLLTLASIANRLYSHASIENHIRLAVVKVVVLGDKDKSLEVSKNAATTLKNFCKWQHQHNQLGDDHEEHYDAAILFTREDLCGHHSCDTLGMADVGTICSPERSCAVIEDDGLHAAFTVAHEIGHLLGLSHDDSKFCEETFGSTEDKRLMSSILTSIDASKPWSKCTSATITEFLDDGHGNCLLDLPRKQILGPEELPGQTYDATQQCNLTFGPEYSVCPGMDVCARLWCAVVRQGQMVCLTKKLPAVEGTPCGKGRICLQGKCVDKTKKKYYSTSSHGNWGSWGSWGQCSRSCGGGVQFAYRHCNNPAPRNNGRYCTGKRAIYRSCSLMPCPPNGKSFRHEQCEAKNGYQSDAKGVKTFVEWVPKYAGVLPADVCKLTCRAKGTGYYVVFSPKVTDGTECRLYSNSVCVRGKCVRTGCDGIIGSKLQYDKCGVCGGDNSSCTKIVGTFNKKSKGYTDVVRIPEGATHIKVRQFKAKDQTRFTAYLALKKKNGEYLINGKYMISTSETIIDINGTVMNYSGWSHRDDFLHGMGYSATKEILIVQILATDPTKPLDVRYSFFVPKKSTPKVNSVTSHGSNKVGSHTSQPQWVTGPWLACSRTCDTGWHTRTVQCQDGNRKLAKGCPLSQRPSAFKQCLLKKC

Chain of human TACE (P78536 whole entry, looked up, change not shown): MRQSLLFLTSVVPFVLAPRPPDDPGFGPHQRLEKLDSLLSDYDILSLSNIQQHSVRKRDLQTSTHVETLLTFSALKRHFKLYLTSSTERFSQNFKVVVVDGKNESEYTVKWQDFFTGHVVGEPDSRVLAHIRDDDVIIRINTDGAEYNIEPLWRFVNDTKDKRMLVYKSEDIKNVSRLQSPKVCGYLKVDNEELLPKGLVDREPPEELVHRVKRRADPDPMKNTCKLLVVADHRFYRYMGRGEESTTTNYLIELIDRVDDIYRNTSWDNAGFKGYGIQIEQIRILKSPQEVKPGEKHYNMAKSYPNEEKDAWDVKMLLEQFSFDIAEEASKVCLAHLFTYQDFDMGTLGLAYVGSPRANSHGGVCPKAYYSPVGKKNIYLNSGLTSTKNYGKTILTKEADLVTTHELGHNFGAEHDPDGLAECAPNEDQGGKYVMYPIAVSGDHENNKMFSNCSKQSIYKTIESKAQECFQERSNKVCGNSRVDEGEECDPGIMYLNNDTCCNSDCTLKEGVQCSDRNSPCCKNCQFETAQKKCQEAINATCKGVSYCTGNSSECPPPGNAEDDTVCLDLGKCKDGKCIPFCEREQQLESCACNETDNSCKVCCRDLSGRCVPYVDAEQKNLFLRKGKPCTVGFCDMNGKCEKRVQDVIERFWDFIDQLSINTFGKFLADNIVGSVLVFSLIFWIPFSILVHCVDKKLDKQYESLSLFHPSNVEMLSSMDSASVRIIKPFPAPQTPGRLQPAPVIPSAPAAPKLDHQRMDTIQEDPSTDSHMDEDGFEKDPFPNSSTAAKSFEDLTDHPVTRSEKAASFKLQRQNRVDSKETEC

CC1(CCC(=O)N2CCN(c3cncc(Br)c3)CC2)NC(=O)NC1=O (stereo not drawn) [compound 86, 5-[3-[4-(5-bromo-3-pyridyl)piperazin-1-yl]-3-oxo-propyl]-5-methyl-imidazolidine-2,4-dione]
IC50 [1]: > 20000 nM | IC50 [2]: > 4000 nM | IC50 [3]: 1790 nM | IC50 [4]: 1700 nM

Cc1ccc(C2(CCC(=O)N3CCN(c4cccc(Cl)c4)CC3)NC(=O)NC2=O)cc1 (stereo not drawn) [compound 76, 5-[3-[4-(3-chlorophenyl)piperazin-1-yl]-3-oxo-propyl]-5-(p-toy)imidazolidine-2,4-dione]
IC50 [1]: 2060 nM | IC50 [2]: 1780 nM | IC50 [3]: 102 nM | IC50 [4]: 91 nM

Cc1ccc(C)c(N2CCN(C(=O)CCC3(c4cccnc4)NC(=O)NC3=O)CC2)c1 (stereo not drawn) [compound 88, 5-[3-[4-(2,5-dimethylphenyl)piperazin-1-yl]-3-oxo-propyl]-5-(3-pyridyl)imidazolidine-2,4-dione]
IC50 [1]: > 20000 nM | IC50 [2]: 211 nM | IC50 [3]: 119 nM | IC50 [4]: 119 nM

O=C1NC(=O)C(CCC(=O)N2CCN(c3cccc(Cl)c3)CC2)(C2CCC2)N1 (stereo not drawn) [compound 70, 5-[3-[4-(3-chlorophenyl)piperazin-1-yl]-3-oxo-propyl]-5-cyclobutyl-imidazolidine-2,4-dione]
IC50 [1]: > 4000 nM | IC50 [2]: > 20000 nM | IC50 [3]: 205 nM | IC50 [4]: 253 nM

O=C1NC(=O)C(CCC(=O)N2CCN(c3cccc(Cl)c3)CC2)(C2CCCC2)N1 (stereo not drawn) [compound 109, 5-[3-[4-(3-chlorophenyl)piperazin-1-yl]-3-oxo-propyl]-5-cyclopentyl-imidazolidine-2,4-dione]
IC50 [1]: > 4000 nM | IC50 [2]: 5260 nM | IC50 [3]: 182 nM | IC50 [4]: 261 nM

CC1CN(C(=O)CCC2(c3cccnc3)NC(=O)NC2=O)CCN1c1ccccc1 (stereo not drawn) [compound 105, 5-[3-(3-methyl-4-phenyl-piperazin-1-yl)-3-oxo-propyl]-5-(3-pyridyl)imidazolidine-2,4-dione]
IC50 [1]: > 20000 nM | IC50 [2]: > 20000 nM | IC50 [3]: 162 nM | IC50 [4]: 226 nM

COc1ccc(C2(CCC(=O)N3CCN(c4cccc(Cl)c4)CC3)NC(=O)NC2=O)cc1 (stereo not drawn) [compound 78, 5-[3-[4-(3-chlorophenyl)piperazin-1-yl]-3-oxo-propyl]-5-(4-methoxyphenyl)imidazolidine-2,4-dione]
IC50 [1]: 2100 nM | IC50 [2]: 2660 nM | IC50 [3]: 96 nM | IC50 [4]: 79 nM

Cc1c(F)cccc1N1CCN(C(=O)CCC2(c3cccnc3)NC(=O)NC2=O)CC1 (stereo not drawn) [compound 97, 5-[3-[4-(3-fluoro-2-methyl-phenyl)piperazin-1-yl]-3-oxo-propyl]-5-(3-pyridyl)imidazolidine-2,4-dione]
IC50 [1]: > 20000 nM | IC50 [2]: > 4000 nM | IC50 [3]: 148 nM | IC50 [4]: 168 nM

O=C1NC(=O)C(CCC(=O)N2CCN(c3ccc(F)c(Cl)c3)CC2)(C2CC2)N1 (stereo not drawn) [compound 114, 5-[3-[4-(3-chloro-4-fluoro-phenyl)piperazin-1-yl]-3-oxo-propyl]-5-cyclopropyl-imidazolidine-2,4-dione]
IC50 [1]: 2580 nM | IC50 [2]: > 20000 nM | IC50 [3]: 62 nM | IC50 [4]: 67 nM

Cc1c(F)cccc1N1CCN(C(=O)CCC2(c3ccccn3)NC(=O)NC2=O)CC1 (stereo not drawn) [compound 100, 5-[3-[4-(3-fluoro-2-methyl-phenyl)piperazin-1-yl]-3-oxo-propyl]-5-(2-pyridyl)imidazolidine-2,4-dione]
IC50 [1]: > 20000 nM | IC50 [2]: > 4000 nM | IC50 [3]: 163 nM | IC50 [4]: 185 nM

Cc1cc(Cl)ccc1N1CCN(C(=O)CCC2(C)NC(=O)NC2=O)CC1 (stereo not drawn) [compound 17, 5-[3-[4-(4-chloro-2-methyl-phenyl)piperazin-1-yl]-3-oxo-propyl]-5-methyl-imidazolidine-2,4-dione]
IC50 [1]: > 20000 nM | IC50 [2]: > 4000 nM | IC50 [3]: > 3940 nM | IC50 [4]: 2840 nM

Cc1ccccc1N1CCN(C(=O)CCC2(C3CC3)NC(=O)NC2=O)CC1 (stereo not drawn) [compound 35, 5-cyclopropyl-5-[3-[4-(o-tolyl)piperazin-1-yl]-3-oxo-propyl]imidazolidine-2,4-dione]
IC50 [1]: > 20000 nM | IC50 [2]: > 4000 nM | IC50 [3]: 103 nM | IC50 [4]: 99 nM

Cc1ccc(F)cc1N1CCN(C(=O)CCC2(c3cccnc3)NC(=O)NC2=O)CC1 (stereo not drawn) [compound 92, 5-[3-[4-(5-fluoro-2-methyl-phenyl)piperazin-1-yl]-3-oxo-propyl]-5-(3-pyridyl)imidazolidine-2,4-dione]
IC50 [1]: > 20000 nM | IC50 [2]: 1050 nM | IC50 [3]: 64 nM | IC50 [4]: 63 nM

Cc1ccc(C)c(N2CCN(C(=O)CCC3(c4ccccn4)NC(=O)NC3=O)CC2)c1 (stereo not drawn) [compound 87, 5-[3-[4-(2,5-dimethylphenyl)piperazin-1-yl]-3-oxo-propyl]-5-(2-pyridyl)imidazolidine-2,4-dione]
IC50 [1]: > 20000 nM | IC50 [2]: 120 nM | IC50 [3]: 113 nM | IC50 [4]: 137 nM

C[C@H]1CN(C(=O)CCC2(c3ccccc3)NC(=O)NC2=O)CCN1c1ccccc1 (stereo partly drawn) [compound 137, 5-[3-[(3S)-3-methyl-4-phenyl-piperazin-1-yl]-3-oxo-propyl]-5-phenyl-imidazolidine-2,4-dione]
IC50 [1]: > 20000 nM | IC50 [2]: > 20000 nM | IC50 [3]: 249 nM | IC50 [4]: 240 nM

CC1(CCC(=O)N2CCN(c3ccc(F)cc3)CC2)NC(=O)NC1=O (stereo not drawn) [compound 66, 5-[3-[4-(4-fluorophenyl)piperazin-1-yl]-3-oxo-propyl]-5-methyl-imidazolidine-2,4-dione]
IC50 [1]: > 20000 nM | IC50 [2]: > 20000 nM | IC50 [3]: 1370 nM | IC50 [4]: 1310 nM

O=C1NC(=O)C(CCC(=O)N2CCN(c3ccc(F)c(F)c3)CC2)(c2cccnc2)N1 (stereo not drawn) [compound 90, 5-[3-[4-(3,4-difluorophenyl)piperazin-1-yl]-3-oxo-propyl]-5-(3-pyridyl)imidazolidine-2,4-dione]
IC50 [1]: 1210 nM | IC50 [2]: > 4000 nM | IC50 [3]: 70 nM | IC50 [4]: 85 nM

COc1ccc(C2(CCC(=O)N3CCN(c4cc(Cl)ccc4C)CC3)NC(=O)NC2=O)cc1 (stereo not drawn) [compound 79, 5-[3-[4-(5-chloro-2-methyl-phenyl)piperazin-1-yl]-3-oxo-propyl]-5-(4-methoxyphenyl)imidazolidine-2,4-dione]
IC50 [1]: > 20000 nM | IC50 [2]: 277 nM | IC50 [3]: 53 nM | IC50 [4]: 53 nM

CC1CN(C(=O)CCC2(C3CC3)NC(=O)NC2=O)CCN1c1ccccc1 (stereo not drawn) [compound 106, 5-cyclopropyl-5-[3-(3-methyl-4-phenyl-piperazin-1-yl)-3-oxo-propyl]imidazolidine-2,4-dione]
IC50 [1]: > 20000 nM | IC50 [2]: > 20000 nM | IC50 [3]: 222 nM | IC50 [4]: 233 nM

O=C1NC(=O)C(CCC(=O)N2CCN(c3ccc(F)c(F)c3)CC2)(c2ccccn2)N1 (stereo not drawn) [compound 95, 5-[3-[4-(3,4-difluorophenyl)piperazin-1-yl]-3-oxo-propyl]-5-(2-pyridyl)imidazolidine-2,4-dione]
IC50 [1]: 2200 nM | IC50 [2]: > 4000 nM | IC50 [3]: 40 nM | IC50 [4]: 48 nM

CC(C)C1(CCC(=O)N2CCN(c3cc(Cl)cc(Cl)c3)CC2)NC(=O)NC1=O (stereo not drawn) [compound 54, 5-[3-[4-(3,5-dichlorophenyl)piperazin-1-yl]-3-oxo-propyl]-5-isopropyl-imidazolidine-2,4-dione]
IC50 [1]: > 20000 nM | IC50 [2]: 2270 nM | IC50 [3]: 91 nM | IC50 [4]: 61 nM
